# In EP0238207B1, “Bactericidal mixtures” (PITMAN-MOORE INC., priority 1986, dated 1987):
# Where two headings read alike, the source gives them in different places.
# Key:
# [1] = tested on: Salmonella dublin strain M738; assay: Synergy in experimental bovine salmonellosis, five repeated daily subcutaneous injections (Example 2); assay type: in vivo, calves; settings: for Mortality: s.c., five days
# Source text: In planning the investigation of possible synergy between Compound A and sulphadimidine (SDD), it was decided that seven treatment groups (including an untreated control group) of eight calves each would be necessary, but because of the impossibility of housing this required total number of calves (56) at one time in the available isolation accommodation, it was planned to carry out two duplicate experiments each using seven groups of four calves.
# • 1) "Sodium Sulfamethazine Injectable Solution 25%" - Cyanamid. This commercial preparation contained 250 mg/ml of sodium SDD, equivalent to 232 mg/ml of SDD. • 2) Aqueous solution of SDD, 100 mg/ml in dilute NaOH. • 3) Aqueous solution of Compound A, 20 mg/ml as the hydrochloride.
# On the day of infection, Day 0, each calf received an oral dose of 50 ml of a log-phase culture of Salmonella dublin strain M738 diluted to contain an estimated 10¹⁰ organisms, using the published technique (White et al 1981a). A viable count on the inoculum was carried out.
# On the basis of Day 0 (am) bodyweights the calves were randomly allocated into 7 groups of 4.
# Using Day 0 bodyweights, 3 calves of identical weights to the day 0 weights of the 3 eliminated calves were allocated to the appropriate groups, and the remaining […] were randomly allocated to the 7 groups as above.
# Administration of compounds in all cases was by subcutaneous injection, using different sides of the animal for Compound A and SDD when both were given in groups 4, 5 and 6. The first of five consecutive daily injections was given 43 hours after […], the other following at 24 hour intervals.
# S. dublin strain M738 = assay: MIC by surface growth inhibition method, checkerboard two-fold dilution series; assay type: cell-based; settings: for MIC: Salmonella enterica, M738
# Experimental: Estimation of the minimum inhibitory concentrations (MICs) of Compound A and SDD, alone and together, was carried out by a surface growth inhibition method, using a "checkerboard" two-fold dilution series, with Compound A and SDD ranges of […] and 256 to 1µg/ml respectively. Thus, including the control plates, a total of 100 different combinations were used. Dilutions were made in Oxoid Isosensitest Agar with plate inoculation by an automatic inoculator using a 2µl inoculum yielding semi-confluent growth over a disc approx. 7 mm diameter. End points were judged to be the lowest concentrations completely or almost completely inhibiting growth.
# [2] = Serum concentrations in infected calves (Bratton-Marshall method for sulphonamide, bio-assay for Compound A); assay type: in vivo
# Experimental: Blood samples for assay of sulphonamide by the Bratton-Marshall method and for Compound A by bio-assay were collected before and 24 hours after the first injection, 2, 5 and 24 hours after the second injection, 24 hours after the fourth injection and 2, 5 and 24 hours after the fifth injection.
# S.dublin = assay: Treatment of acute salmonellosis in calves, compound administered alone; assay type: in vivo; settings: administered alone at dosages of up to 6 mg/kg
# a range of organisms = settings: against a range of organisms; cited from earlier work
# [3] = cattle older than about six weeks; cited from earlier work
smiles,measurement,setting,value
"Cc1cc(Cc2cnc(N)nc2N)c2cccnc2c1N(C)C [Compound A, 2,4-diamino-5-(8-dimethylamino-7-methyl-5-quinolylmethyl) pyrimidine]",Mortality,[1]; Group 3: Compound A alone 6 mg/kg daily,5 out of 8
same,therapeutic effect,[1]; Group 3: Compound A alone at 6 mg/kg daily,ineffective
same,growth at 24 hours,"S. dublin strain M738; Compound A 0.002 µg/ml, SDD 0 µg/ml",+
same,growth at 24 hours,"S. dublin strain M738; Compound A 0.004 µg/ml, SDD 0 µg/ml",+
same,growth at 24 hours,"S. dublin strain M738; Compound A 0.008 µg/ml, SDD 0 µg/ml",+
same,growth at 24 hours,"S. dublin strain M738; Compound A 0.016 µg/ml, SDD 0 µg/ml",+
same,growth at 24 hours,"S. dublin strain M738; Compound A 0.032 µg/ml, SDD 0 µg/ml",+
same,growth at 24 hours,"S. dublin strain M738; Compound A 0.064 µg/ml, SDD 0 µg/ml",+
same,growth at 24 hours,"S. dublin strain M738; Compound A 0.128 µg/ml, SDD 0 µg/ml",+
same,growth at 24 hours,"S. dublin strain M738; Compound A 0.256 µg/ml, SDD 0 µg/ml",-
same,growth at 24 hours,"S. dublin strain M738; Compound A 0.512 µg/ml, SDD 0 µg/ml",-
same,MIC,"S. dublin strain M738; each substance alone, Oxoid Isosensitest Agar, read-out: MIC",0.256 µg/mL
same,serum concentrations of Compound A,[2]; Group 3: Compound A alone at 6 mg/kg daily s.c.,> 0.256 µg/mL
same,effect in treating acute salmonellosis (S.dublin) in calves,S.dublin,ineffective
same,in vitro antibacterial activity,a range of organisms,good
COc1cc(Cc2cnc(N)nc2N)cc(OC)c1OC [trimethoprim],oral bioavailability,[3],very poor
"Cc1cc(C)nc(NS(=O)(=O)c2ccc(N)cc2)n1 [SDD, sulphadimidine]",therapeutic effect,[1]; Group 1: SDD alone 200/100 mg/kg daily,therapeutically ineffective
same,clinical recovery of surviving calves,"[1]; Group 1: SDD alone 200/100 mg/kg, three surviving calves",very slow clinical recovery
same,bodyweight of surviving calves,"[1]; Group 1: SDD alone 200/100 mg/kg, three surviving calves, Day 21 versus Day 0",none had regained its Day 0 bodyweight by Day 21
same,Mortality,"[1]; Group 1: SDD alone, first dose 200 mg/kg, subsequent doses 100 mg/kg daily",5 out of 8
same,Mortality,[1]; Group 2: SDD alone 30 mg/kg daily,5 out of 8
same,growth at 24 hours,"S. dublin strain M738; Compound A 0 µg/ml, SDD 1 µg/ml",+
same,growth at 24 hours,"S. dublin strain M738; Compound A 0 µg/ml, SDD 2 µg/ml",+
same,growth at 24 hours,"S. dublin strain M738; Compound A 0 µg/ml, SDD 4 µg/ml",+
same,growth at 24 hours,"S. dublin strain M738; Compound A 0 µg/ml, SDD 8 µg/ml",+
same,growth at 24 hours,"S. dublin strain M738; Compound A 0 µg/ml, SDD 16 µg/ml",+
same,growth at 24 hours,"S. dublin strain M738; Compound A 0 µg/ml, SDD 32 µg/ml",+
same,growth at 24 hours,"S. dublin strain M738; Compound A 0 µg/ml, SDD 64 µg/ml",+
same,growth at 24 hours,"S. dublin strain M738; Compound A 0 µg/ml, SDD 128 µg/ml",-
same,growth at 24 hours,"S. dublin strain M738; Compound A 0 µg/ml, SDD 256 µg/ml",-
same,MIC,S. dublin strain M738,128 µg/mL
same,serum concentrations of SDD,"[2]; Group 1: SDD alone 200/100 mg/kg daily s.c., throughout the dosing period",> 128 µg/mL
